In patent US6376169B1, “Method for diagnosing a vascular condition” (Queens University at Kingston, priority 1998, dated 2002):
“Also recorded” adds a separate entry of the source.

How the values were obtained:
uPAR mRNA = test: Northern blot of uPAR mRNA in HTR-8/SVneo cells; format: cell-based, human; settings: 24 h
Procedure: To determine whether hypoxia regulates the expression of certain genes (e.g., PAI-1, uPAR, RTP/Drg1) via an iron-containing heme protein, cells were cultured for up to 72 h at 20% oxygen in the presence or absence of either 100 μM cobalt chloride, or 30 mM sodium 4,5-dihydroxybenzene-1,3-disulfonate (Tiron), or 100 μM desferrioxamine mesylate (DFO) (Sigma Chemical CO., St. Louis, Mo.). Further confirmation of the role of a heme protein in hypoxic responses can be achieved by culturing cells under hypoxia in the presence of carbon monoxide, which maintains the heme protein in the oxy state and thereby blocks heme protein-mediated hypoxic responses. […]
Northern Blot Analysis. Total RNA was isolated from cell lines as described above. […] RNA was transferred to nylon membranes (Micron Separations, Inc., Westboro, Mass.). […] The hybridization solution contained 6×SSC, 0.5% SDS, 100 μg/mL denatured salmon sperm DNA, 50% formamide and cDNA probe. After hybridization, the membranes were washed with 2×SSC and 0.5% SDS at room temperature for 15 min, 2×SSC and 0.1% SDS at room temperature for 15 min, and 0.1×SSC and 0.5% SDS for 30 min. Dupont Reflection NEF film (Dupont Canada, Inc., Mississauga, ON) was exposed to the membranes for 1-3 days at −80° C. Bands on radiographic film were analyzed using a SigmaGel gel analysis software package (Jandel Scientific Software, San Rafael, Calif.).

uPAR [1] = test: uPAR expression by flow cytometry (mAb 3937) on HTR-8/SVneo cells; format: cell-based, human; settings: for effect on the inhibition by carbon monoxide of hypoxia-induced uPAR expression: compound in the medium, hypoxia + CO, two independent experiments
Procedure: To determine whether hypoxia regulates the expression of certain genes (e.g., PAI-1, uPAR, RTP/Drg1) via an iron-containing heme protein, cells were cultured for up to 72 h at 20% oxygen in the presence or absence of either 100 μM cobalt chloride, or 30 mM sodium 4,5-dihydroxybenzene-1,3-disulfonate (Tiron), or 100 μM desferrioxamine mesylate (DFO) (Sigma Chemical CO., St. Louis, Mo.). Further confirmation of the role of a heme protein in hypoxic responses can be achieved by culturing cells under hypoxia in the presence of carbon monoxide, which maintains the heme protein in the oxy state and thereby blocks heme protein-mediated hypoxic responses. Thus, cells were also cultured for 24 h at 37° C. under hypoxic conditions in the presence of 30% carbon monoxide.
Determination of uPAR expression by flow cytometry. For flow cytometry, cells were released from flasks by incubation in cold PBS containing 5 mM EDTA. One million cells were then incubated for 1 h, at 4° C., with either 10 μg/ml of mAb 3937, or control mouse IgG2a, used at the same concentration. Bound antibody was detected using FITC-conjugated goat anti-mouse immunoglobulin. Cells were then fixed with 2% paraformaldehyde in PBS prior to analysis using a Coulter Elite Flow Cytometer.

MDA-MB-231 cells = test: In vitro invasion of MDA-MB-231 cells through Matrigel; format: cell-based, human; settings: 1% O2 + 30% CO
Procedure: In vitro invasion assay. An assay which employs reconstituted basement membrane (Matrigel; Collaborative Biomedical Products, Bedford, Mass.) as the substrate for invasion was used to determine the effect of hypoxia on the invasiveness of tumor cells. Costar Transwell inserts (6.5 mm diameter polycarbonate membrane, 8 μm pore; Corning Costar Corp., Cambridge, Mass.) were coated with 100 μl of a 1 mg/ml solution of Matrigel diluted in cold serum-free culture medium, placed in the wells of a 24-well tissue culture plate and allowed to air-dry for 12 h in a laminar flow cabinet. After reconstituting the Matrigel by incubating for 1 h with 100 μl of serum-free medium, 5.0×10^4 cells in 100 μl aliquots of serum-containing medium were added to the Transwells. Following a 24-h incubation under either 20% or 1% O2 in the absence or presence of 10 μg/ml blocking anti-uPAR antibody (3936), or under 1% O2+30% CO (to assess the role of a heme protein on invasion), cells on the surface of the Matrigel-coated polycarbonate membrane (non-invading cells) were removed by scraping with a cotton swab. […] The invasion index' was then determined by counting, under a microscope, the total number of stained cells in the underside of the polycarbonate membranes.

cell-associated uPA = test: Zymography of cell-associated plasminogen activators in MDA-MB-231 cell extracts; format: cell-based, human
Procedure: To assess the levels of plasminogen activators associated with cells cultured for 24 h under 20% and 1% O2, extracts were prepared by disrupting trypsinized cell pellets with 2% SDS in Tris-buffered saline (TBS; 10 mM Tris, 0.15 M NaCl, pH 7.5) using a Polytron homogenizer (Brinkmann Instruments, Rexdale, ON, Canada). The homogenates were centrifuged at 15,000 g for 15 min to remove insoluble materials and 100 μg of extracted protein were analyzed by casein-plasminogen gel zymography as described above.

uPAR [2] = test: Binding of [125I]-prourokinase to HTR-8/SVneo cells (uPAR expression); format: cell-based, human; settings: for Kd: Kd of [125I]-prourokinase on cells cultured with compound, read-out: Kd (nM) ± SEM; for increase in the expression of uPAR: flow cytometric and radioligand binding studies; for Bmax (sites/cell) ± SEM: [125I]-prourokinase binding to cells cultured with compound
Procedure: Determination of uPAR expression by urokinase binding analysis. Measurement of uPAR expression by ligand binding analysis was performed using [^125I]-prourokinase as the ligand, as described (Zini J M, et al., Blood 79:2917 (1992)). Prourokinase was radiolabeled with ^125I, using Iodobeads, to a specific radioactivity of at least 10^6 cpm/μg. Cells were then chilled to 4° C., washed with cold PBS containing 1% BSA, and incubated for 2 h with increasing concentrations of[^125I]-prourokinase in the absence (to determine total binding) or presence (to determine non-specific binding) of a 100-fold molar excess of unlabeled prourokinase. Specific binding was defined as the difference between total and non-specific binding, and analyzed by non-linear curve fitting methods (least squares method) using the Kaliedograph software program (Synergy Software, Reading, Pa.).

uPAR [3] = test: uPAR protein and mRNA in cancer cells (Example 1); format: cell-based; settings: 24 hours, standard conditions; 100 μM cobalt chloride; Tiron
[4] = standard (20% O2) conditions with compound

Row | SMILES | reduction of hypoxia-mediated increase in uPAR mRNA (uPAR mRNA; 1% O2 + 20% carbon monoxide) | increase in uPAR mRNA vs standard conditions alone (uPAR mRNA; hypoxic (1% O2) conditions in the presence of 20% carbon monoxide) | inhibition of hypoxia-induced expression of uPAR (uPAR [1]; 1% O2 + 20% carbon monoxide, 24 h, flow cytometry) | effect on hypoxia-mediated increase in invasiveness (MDA-MB-231 cells) | effect on hypoxic increase in cell-associated uPA (cell-associated uPA; 1% O2 + 30% CO, listed as CO) | increase in uPAR mRNA vs standard conditions alone (uPAR mRNA; [4]) | effect on the inhibition by carbon monoxide of hypoxia-induced uPAR expression (uPAR [1]) | Kd (uPAR [2]) | increase in the expression of uPAR (uPAR [2]; Tiron) | Bmax (sites/cell) ± SEM (uPAR [2]) | increase in the expression of uPAR (uPAR [2]; cobalt chloride) | cell-associated uPA levels (cell-associated uPA; culture with cobalt chloride) | uPAR protein and mRNA levels (uPAR [3])
1 | [C-]#[O+] [carbon monoxide] | 35% | 1.8 fold | 56% | completely abrogated | abrogated the hypoxic increase in cell-associated uPA; also recorded: prevented the effect of hypoxia on cell-associated uPA increases |  |  |  |  |  |  |  | 
2 | O=S(=O)([O-])c1cc(O)c(O)c(S(=O)(=O)[O-])c1.[Na+].[Na+] [Tiron, sodium 4,5-dihydroxybenzene-1,3-disulfonate] |  |  |  |  |  | > 10 fold | completely prevented | 8.08 ± 1.11 nM | 3 fold | 623,213 ± 102,360 sites/cell |  |  | 
3 | [Cl][Co][Cl] [cobalt chloride] |  |  |  |  |  | 3.5 fold | completely prevented | 3.58 ± 0.69 nM |  | 285,711 ± 38,324 sites/cell | 28% | increased cell-associated uPA | elevated uPAR protein and mRNA levels
